Literature values in patent publication US20070275092A1, “Therapeutic composition supporting the immune system” (priority 2005, published 2007).

Conditions: per day

[Zn] [zinc]
dosage well tolerated but with potential side effects such as anemia (attributable to copper deficiency): 200 mg
